Assay results: the CheMixHub drug solubility set

Assay: xn = mol fraction of the nth substance listed, in the solute-free solvent

Nc1cccc2ccncc12 + CCCO + O
solubility (g/100 g solution)
Conditions	278.15 K	283.15 K	288.15 K	293.15 K	298.15 K	303.15 K	308.15 K	313.15 K	318.15 K	323.15 K
x2 = 0.03225	0.0813	0.0931	0.106	0.124	0.14	0.162	0.187	0.216	0.247	0.285
x2 = 0.06974	0.175	0.199	0.226	0.263	0.297	0.341	0.393	0.45	0.513	0.589
x2 = 0.1139	0.299	0.34	0.385	0.448	0.506	0.58	0.668	0.764	0.87	0.997
x2 = 0.1666	0.433	0.493	0.56	0.652	0.739	0.848	0.978	1.12	1.27	1.46
x2 = 0.2307	0.521	0.606	0.711	0.84	0.964	1.11	1.28	1.47	1.69	1.94
x2 = 0.3103	0.618	0.731	0.862	1.01	1.16	1.33	1.55	1.78	2.06	2.38
x2 = 0.4117	0.686	0.822	0.992	1.18	1.36	1.59	1.84	2.12	2.44	2.82
x2 = 0.5454	0.774	0.916	1.11	1.32	1.53	1.78	2.08	2.41	2.78	3.21
x2 = 0.7297	0.791	0.959	1.16	1.39	1.64	1.92	2.24	2.6	3.03	3.54

NCCS(=O)(=O)O + O + CC#N
solubility (g/100 g solution)
Conditions	298.15 K	303.15 K	308.15 K	313.15 K	318.15 K
x2 = 0.6949	0.528	0.562	0.597	0.644	0.864
x2 = 0.7736	1.15	1.28	1.37	1.54	1.75
x2 = 0.8417	2.09	2.47	2.66	2.99	3.69
x2 = 0.9011	3.76	4.25	4.87	6.01	7.16
x2 = 0.9535	6.1	7.22	8.46	9.89	11.6

O=C(O)C1CC(O)CN1 (stereo not given) + O + CC#N
solubility (g/100 g solution)
Conditions	x2 = 0.1	x2 = 0.2	x2 = 0.3	x2 = 0.4	x2 = 0.5	x2 = 0.6	x2 = 0.7	x2 = 0.8	x2 = 0.9
283.15 K	0.0362	0.0575	0.0864	0.185	–	0.635	1.45	3.22	9.59
293.15 K	0.0605	0.101	0.188	0.517	1.13	1.82	2.8	4.82	12.7
303.15 K	0.0971	0.136	0.287	0.813	1.6	2.88	4.48	7.02	15.9
313.15 K	0.128	0.203	0.398	1.08	2.25	3.66	6.08	11.3	21.4
323.15 K	0.187	0.327	0.778	1.71	3.12	5.6	10.2	16.7	24.8

Cc1ccc2cc(Br)ccc2n1 + CO + O
solubility (g/100 g solution)
Conditions	278.15 K	283.15 K	288.15 K	293.15 K	298.15 K	303.15 K	308.15 K	313.15 K	318.15 K	323.15 K
x2 = 0.05881	0.0126	0.0148	0.0176	0.0206	0.0242	0.0281	0.0331	0.0386	0.045	0.0524
x2 = 0.1233	0.0194	0.0228	0.0268	0.0314	0.0369	0.0428	0.0502	0.0586	0.0682	0.0793
x2 = 0.1942	0.0298	0.0349	0.0409	0.0477	0.056	0.0651	0.0761	0.0886	0.103	0.12
x2 = 0.2727	0.0444	0.052	0.0607	0.0706	0.0828	0.0963	0.112	0.131	0.152	0.177
x2 = 0.3599	0.0588	0.0705	0.0835	0.0981	0.115	0.135	0.156	0.18	0.21	0.245
x2 = 0.4576	0.0792	0.095	0.112	0.133	0.155	0.18	0.21	0.245	0.283	0.331
x2 = 0.5675	0.097	0.117	0.14	0.166	0.195	0.228	0.266	0.311	0.361	0.421
x2 = 0.6923	0.118	0.142	0.169	0.199	0.233	0.272	0.318	0.374	0.436	0.511
x2 = 0.835	0.133	0.159	0.19	0.227	0.27	0.317	0.368	0.429	0.504	0.593

NCCS(=O)(=O)O + O + CC(O)CO
solubility (g/100 g solution)
Conditions	298.15 K	303.15 K	308.15 K	313.15 K	318.15 K
x2 = 0.8085	0.283	0.373	0.413	0.484	0.694
x2 = 0.8636	0.605	0.646	0.75	0.914	1.26
x2 = 0.9079	0.929	1	1.36	1.64	2.12
x2 = 0.9441	1.72	2.03	2.51	3.03	3.67
x2 = 0.9744	3.42	4.2	5.01	5.6	6.88

CN1CCC(N(Cc2cccs2)c2ccccc2)CC1 + CC(C)O + O
solubility (g/100 g solution)
Conditions	278.15 K	283.15 K	288.15 K	293.15 K	298.15 K	303.15 K	308.15 K	313.15 K	318.15 K	323.15 K
x2 = 0.03225	0.141	0.15	0.16	0.173	0.19	0.208	0.229	0.249	0.274	0.301
x2 = 0.06974	0.326	0.345	0.365	0.394	0.428	0.466	0.508	0.551	0.601	0.656
x2 = 0.1139	0.573	0.606	0.64	0.689	0.746	0.809	0.879	0.952	1.03	1.13
x2 = 0.1666	0.834	0.881	0.933	1.01	1.09	1.18	1.28	1.39	1.51	1.64
x2 = 0.2307	1.04	1.1	1.18	1.28	1.4	1.51	1.64	1.78	1.95	2.12
x2 = 0.3103	1.24	1.33	1.43	1.54	1.67	1.81	1.96	2.11	2.3	2.52
x2 = 0.4117	1.4	1.51	1.62	1.75	1.93	2.12	2.32	2.54	2.77	3.04
x2 = 0.5454	1.55	1.68	1.82	1.99	2.15	2.34	2.58	2.83	3.11	3.42
x2 = 0.7297	1.61	1.77	1.95	2.14	2.35	2.6	2.85	3.13	3.41	3.74

CC(=O)Oc1cccc2c1C(=O)c1c(OC(C)=O)cc(C(=O)O)cc1C2=O + CCOC(C)=O + CC(C)O
solubility (g/100 g solution)
Conditions	273.15 K	278.15 K	283.15 K	288.15 K	293.15 K	298.15 K	303.15 K	308.15 K	313.15 K
x2 = 0.07045	0.0064	0.00841	0.0107	0.014	0.0178	0.0215	0.0261	0.0309	0.0362
x2 = 0.1457	0.00881	0.0112	0.0142	0.0177	0.0216	0.0261	0.031	0.0367	0.0431
x2 = 0.2262	0.0102	0.0132	0.0164	0.0199	0.0246	0.0305	0.0368	0.0448	0.0539
x2 = 0.3126	0.0121	0.0158	0.0197	0.0245	0.0299	0.0359	0.0439	0.0522	0.062
x2 = 0.4055	0.0132	0.0175	0.0224	0.0279	0.0338	0.0406	0.0489	0.0583	0.069
x2 = 0.5057	0.0164	0.0205	0.0253	0.0305	0.0368	0.0435	0.0512	0.0598	0.0693
x2 = 0.6141	0.0209	0.026	0.0317	0.0375	0.0445	0.0521	0.0612	0.0702	0.0806
x2 = 0.7318	0.0254	0.0303	0.0368	0.0441	0.0516	0.06	0.0692	0.0796	0.0906
x2 = 0.8599	0.0219	0.0263	0.0318	0.0379	0.0443	0.0515	0.0599	0.0686	0.0779

CN1CCC(N(Cc2cccs2)c2ccccc2)CC1 + CCCO + O
solubility (g/100 g solution)
Conditions	278.15 K	283.15 K	288.15 K	293.15 K	298.15 K	303.15 K	308.15 K	313.15 K	318.15 K	323.15 K
x2 = 0.03225	0.166	0.176	0.187	0.203	0.221	0.243	0.267	0.289	0.318	0.348
x2 = 0.06974	0.411	0.434	0.458	0.492	0.533	0.581	0.632	0.682	0.743	0.808
x2 = 0.1139	0.734	0.774	0.815	0.873	0.943	1.02	1.11	1.2	1.3	1.41
x2 = 0.1666	1.05	1.11	1.18	1.26	1.36	1.48	1.61	1.73	1.88	2.04
x2 = 0.2307	1.32	1.4	1.49	1.6	1.73	1.89	2.06	2.22	2.41	2.62
x2 = 0.3103	1.55	1.66	1.77	1.91	2.08	2.26	2.48	2.69	2.93	3.18
x2 = 0.4117	1.77	1.9	2.04	2.21	2.4	2.63	2.87	3.13	3.45	3.75
x2 = 0.5454	1.97	2.13	2.3	2.5	2.74	3	3.31	3.62	3.96	4.32
x2 = 0.7297	2.09	2.27	2.47	2.7	2.97	3.26	3.62	3.98	4.36	4.77
